The source of these data is ChEMBL document CHEMBL3044770, “Studies on toxicity of antitubercular drugs namely isoniazid, rifampicin, and pyrazinamide in an in vitro model of HepG2 cell line” (Med Chem Res, 2011).

What all share (assay type): cell-based
Data set [1] can be described thus: Toxicity in Homo sapiens (human) HepG2 cells assessed as cell viability at 1 mM after 24 hr by MTT assay. As to conditions: read-out: Activity.
Data set [2] can be described thus: Toxicity in Homo sapiens (human) HepG2 cells assessed as cell viability at 10 mM after 24 hr by MTT assay. Particulars: read-out: Activity.
Data set [3] is described as follows: Toxicity in Homo sapiens (human) HepG2 cells assessed as cell viability at 50 mM after 24 hr by MTT assay. Particulars: read-out: Activity.
Data set [4] in a line: Toxicity in Homo sapiens (human) HepG2 cells assessed as cell viability at 5 mM after 24 hr by MTT assay. Particulars: read-out: Activity. For orientation: Tetrazolium assays rely on reduction of a dye to a coloured formazan, in cell work by metabolically active cells.
Data set [5] is described as follows: Toxicity in pyrazinamide pretreated Homo sapiens (human) HepG2 cells assessed as cell viability at 200 mM after 24 hr by MTT assay. As to conditions: HepG2 cells pretreated with pyrazinamide, read-out: Activity.
For the next data set, the system named is HepG2. As to the kind of experiment: Toxicity in Homo sapiens (human) HepG2 cells assessed as change in cell morphology at 1 mM after 24 hr by phase contrast microscopic analysis. As to conditions: hepg2, 24 h, 1000 µM.
Data set [6] is described as follows: Toxicity in isoniazid pretreated Homo sapiens (human) HepG2 cells assessed as cell viability at 200 mM after 24 hr by MTT assay. Particulars: HepG2 cells pretreated with isoniazid, read-out: Activity.
Data set [7] is described as follows: Toxicity in Homo sapiens (human) HepG2 cells assessed as cell viability at 50 uM after 24 hr by MTT assay. As to conditions: read-out: Activity.
Data set [8] is described as follows: Toxicity in Homo sapiens (human) HepG2 cells assessed as cell viability at 25 uM after 24 hr by MTT assay. As to conditions: read-out: Activity.
The nature of data set [9]: Toxicity in Homo sapiens (human) HepG2 cells assessed as cell viability at 100 uM after 24 hr by MTT assay. Particulars: read-out: Activity.

The structures appear in SMILES notation.

On to `NNC(=O)c1ccncc1` [ISONIAZID], for which the viability at 24 h, 1000 µM in [1] was determined as 125%. Besides, the viability at 24 h, 10000 µM in data set [2] was 129%. Also, the viability at 24 h, 50000 µM in data set [3] is 91.3%. The viability at 24 h, 5000 µM in data set [4] stood at 99.7%. The viability at 24 h, 200000 µM in [5] stood at 56.1%. For the same compound, in the data set on HepG2, the Activity result was “Non-toxic”.

Consider `NC(=O)c1cnccn1` [PYRAZINAMIDE], for which the viability at 24 h, 1000 µM in [1] is 87.7%. The viability at 24 h, 200000 µM in data set [6] was 60.1%. The viability at 24 h, 10000 µM in data set [2] was 104%. Also, in [3], the viability at 24 h, 50000 µM was 102%. Moreover, the viability at 24 h, 5000 µM in [4] was 102%. In addition, the Activity entry with HepG2 is recorded as “Non-toxic”.

Turning to `CO[C@H]1/C=C/O[C@@]2(C)Oc3c(C)c(O)c4c(O)c(c(/C=N/N5CCN(C)CC5)c(O)c4c3C2=O)NC(=O)/C(C)=C\C=C\[C@H](C)[C@H](O)[C@@H](C)[C@@H](O)[C@@H](C)[C@H](OC(C)=O)[C@@H]1C` [RIFAMPIN], the viability at 24 h, 50 µM in data set [7] amounted to 116%. Further, the viability at 24 h, 25 µM in data set [8] is 115%. For the same compound, the viability at 24 h, 100 µM in data set [9] came out at 192%.
